The text below walks through data of PMC8606745 (Frontiers in Microbiology, 2021).

“And” between values parts separate entries of the source, which are not always exact repeats. Equal entries are not always repeated. Where two headings read alike, the source gives them in different places.

In data set [1] the test system is X. fastidiosa subsp. fastidiosa IVIA 5387.2. Type of data set: cell-based, Xylella fastidiosa.
Data set [2] relates to X. fastidiosa subsp. pauca DD1. Type of data set: cell-based, Xylella fastidiosa. Conditions: 50 μM; strain DD1; OD595 crystal violet, 28°C, 5 days; three replicates of 10 wells ± confidence interval; listed as NAC.
Data set [3] has as its system X. fastidiosa subsp. fastidiosa IVIA 5770. Type of data set: cell-based, Xylella fastidiosa. Conditions: 50 μM; strain IVIA 5770; OD595 crystal violet, 28°C, 5 days; three replicates of 10 wells ± confidence interval; listed as NAC.
For data set [4], the system named is X. fastidiosa subsp. fastidiosa Temecula (ATCC 700964). The data set is classed as cell-based, Xylella fastidiosa. Conditions: 50 μM; strain Temecula; OD595 crystal violet, 28°C, 5 days; three replicates of 10 wells ± confidence interval; listed as NAC.
The subject of data set [5] is X. fastidiosa subsp. multiplex IVIA 5901.2. Type of data set: cell-based, Xylella fastidiosa. Conditions: 50 μM; strain IVIA 5901.2; OD595 crystal violet, 28°C, 5 days; three replicates of 10 wells ± confidence interval; listed as NAC.
Data set [6] has as its system X. fastidiosa subsp. multiplex CFBP 8173. Type of data set: cell-based, Xylella fastidiosa. Conditions: 50 μM; strain CFBP 8173; OD595 crystal violet, 28°C, 5 days; three replicates of 10 wells ± confidence interval; listed as NAC.
Data set [7] concerns X. fastidiosa subsp. fastidiosa IVIA 5387.2. Conditions: 50 µM.

Turning to `CC(=O)N[C@@H](CS)C(=O)O` [N-Acetyl-L-cysteine, N-acetyl-L-cysteine], the “Biofilm formation Level (antibiofilm activity)” value in data set [1] (50 µM) is “Low (low activity (ratio from 0.72 to 0.77))”. Further, the “Planktonic cells Ratio (treatment/NTC)” value in data set [1] (50 µM, OD600 treated / non-treated, PD3, 96-well, 28°C, 5 days, 120 rpm, three replicates of 10 wells ± confidence interval (α=0.05)) was determined as 1.71 ± 0.03. In data set [1] (50 µM, crystal violet OD595 treated / non-treated, PD3, 96-well, 28°C, 5 days, 120 rpm, three replicates of 10 wells ± confidence interval (α=0.05)), the “Biofilm formation Ratio (treatment/NTC)” value was found to be 0.72 ± 0.01. The “Biofilm formation (Ratio T/NTC)” value in data set [1] (50 μM, strain IVIA 5387.2, OD595 crystal violet, 28°C, 5 days, three replicates of 10 wells ± confidence interval, listed as NAC) was 0.72 and 0.72 ± 0.01 b; in data set [2], 0.42 and 0.42 ± 0.05 a; in data set [3], 0.97; in data set [4] it was 0.94 ± 0.02 c; in data set [5] it was 1.00 ± 0.04 days; in data set [6] it was 0.99. Besides, the Hemolysis with horse erythrocytes (150 µM) is given as 0.5 ± 0.9%; with horse erythrocytes (250 µM), 0.7 ± 1.1%; with horse erythrocytes (375 µM) it was 1 ± 2%. In data set [7] (class by Duncan's test groups), the “Bactericidal activity: Level” value is on record as “Very low (very low activity with less than 0.3 log)”. In addition, the “Bactericidal activity: Reduction in viability (Log N0/N)” value in data set [7] (contact test 3 h at room temperature in SCP buffer, v-qPCR with PMAxx, N0 = 10^7 CFU/mL non-treated control, mean of three replicates ± confidence interval (α=0.05)) stood at 0.12 ± 0.01 Log N0/N.
